Experimental data: US7410975B2, “Small molecule toll-like receptor (TLR) antagonists” (Coley Pharmaceutical Group, Inc., priority 2003, dated 2008)

target: T1, human TLR3 (hTLR3) (Homo sapiens, UniProt O15455); test: Antagonist screen, hTLR3-NFκB-293 cells, NF-κB-luciferase reporter, with EC50 of poly(I:C); format: cell-based; conditions: compound at 0.5, 5, 50 μg/ml; EC50 concentration of poly(I:C); 16 h; NF-κB-luciferase
T1 construct: expressed in transfected cells
T1 sequence (O15455 24-904): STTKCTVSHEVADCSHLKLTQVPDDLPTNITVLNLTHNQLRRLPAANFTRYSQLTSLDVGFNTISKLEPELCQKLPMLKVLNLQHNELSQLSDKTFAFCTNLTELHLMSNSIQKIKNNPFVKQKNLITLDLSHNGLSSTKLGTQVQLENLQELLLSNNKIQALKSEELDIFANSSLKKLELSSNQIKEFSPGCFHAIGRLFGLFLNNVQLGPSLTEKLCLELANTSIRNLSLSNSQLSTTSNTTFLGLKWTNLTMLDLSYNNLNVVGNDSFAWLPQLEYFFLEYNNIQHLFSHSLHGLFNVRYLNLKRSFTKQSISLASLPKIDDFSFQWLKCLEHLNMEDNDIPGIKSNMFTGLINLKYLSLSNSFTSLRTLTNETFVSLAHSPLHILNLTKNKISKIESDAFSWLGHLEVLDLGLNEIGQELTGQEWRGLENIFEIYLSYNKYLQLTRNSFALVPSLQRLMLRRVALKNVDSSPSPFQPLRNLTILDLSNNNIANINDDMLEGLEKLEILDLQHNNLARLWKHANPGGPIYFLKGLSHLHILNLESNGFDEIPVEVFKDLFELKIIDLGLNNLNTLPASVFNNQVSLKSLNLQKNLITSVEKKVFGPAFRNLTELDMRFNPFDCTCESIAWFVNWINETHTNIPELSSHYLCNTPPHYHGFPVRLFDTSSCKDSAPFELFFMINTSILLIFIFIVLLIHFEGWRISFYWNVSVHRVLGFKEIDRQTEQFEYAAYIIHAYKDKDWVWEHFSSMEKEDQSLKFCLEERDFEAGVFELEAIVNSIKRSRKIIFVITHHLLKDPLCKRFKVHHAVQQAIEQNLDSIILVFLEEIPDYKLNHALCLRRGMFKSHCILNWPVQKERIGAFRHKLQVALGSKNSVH
Experimental: The method is described in greater detail as follows. The cells for each individual cell clone (hTLR3-NFκB-293, hTLR7-NFκB-293, hTLR8-NFκB-293 and hTLR9-NFκB-293) were counted and seeded one day before the stimulation at 1.5×10^4 cells per well in 96-well cell culture plates. To become adherent the cells were incubated after seeding overnight at 37° C. in 5% CO2 humidified air.
The screen for each compound was performed at the same time for all of the receptors TLR3, TLR7, TLR8 and TLR9. Up to fifteen test compounds, each assayed in duplicate at each of three different final concentrations (0.5 μg/ml, 5 μg/ml, and 50 μg/ml), were used for 16 h cell stimulation on a single multiwell culture plate. A 4× final concentration master plate was created to prepare the different test compounds before they were added to the cells.
Controls were added as duplicates individually for each cell clone on the cell culture plate. Positive controls were used as follows (final concentrations): 50 μg/ml poly(I:C) for hTLR3-NFκB-293; 8 μM resiquimod (R848) for hTLR7-NFκB-293; 30 μM R848 for hTLR8-NFκB-293; and 2.5 μM CpG-ODN 2006 for hTLR9-NFκB-293. Media alone was used as negative control. After addition of controls and small molecules, the cell clones were additionally stimulated with the EC50 concentration of the appropriate receptor-specific ligand.
The mean value of wells H2 and H5 (each with cells and EC50 concentration of the appropriate receptor-specific ligand) divided by the mean of wells H3 and H6 (each with cells alone) yielded the baseline response (i.e., fold induction of luciferase activity) to EC50 concentration of the appropriate receptor-specific ligand.
After 16 h stimulation the supernatant was removed and the cells treated with lysis buffer and stored at −80° C. before measuring.
For each screen result a graphical documentation was performed.
The baseline result (measured with addition of the EC50 concentration of the receptor-specific ligand) for each cell culture plate was measured as described above. Antagonistic effects were measured by down regulation compared to the baseline. Antagonists were scored as follows: • 13: compounds for which there was clear down regulation at 0.5 μg/ml, 5 μg/ml, and 50 μg/ml; • 12: compounds for which there was clear down regulation at 5 μg/ml and 50 μg/ml; • 11: compounds for which there was clear down regulation only at 50 μg/ml; • —: compounds for which there was no clear down regulation even at 50 μg/ml. Agonists
Results were expressed as fold induction over baseline luciferase activity measured in the absence of poly(I:C). […] Additional screening was performed in like manner using additional small molecules selected from another library or specifically prepared for this purpose. Scoring is reported as above but as applied to TLR3.

Row | Compound | hTLR3 (inhibitory effect, antagonist score)
1 | O=C(O)c1ccc(C2(c3ccc(C(=O)O)cc3)OC(=O)c3ccccc32)cc1 [compound 970] | — (compounds for which there was no clear down regulation even at 50 μg/ml)
2 | Cc1cc(OC(=O)C2C3CCCCC32)c(C(C)C)cc1C1(c2cc(C(C)C)c(OC(=O)C3C4CCCCC43)cc2C)OC(=O)c2ccccc21 (stereo not drawn) [compound 974] | 11 (compounds for which there was clear down regulation only at 50 μg/ml)
3 | CCN(CC)CCCN(CC(=O)C1c2ccc(Cl)cc2NC(=O)c2ccccc21)C(=O)c1ccccc1 (stereo not drawn) [compound 1013] | — (compounds for which there was no clear down regulation even at 50 μg/ml)
4 | O=C1c2ccccc2C(=O)c2c1ccc1c(=O)n(C3CCCCC3)[nH]c21 [compound 1015] | — (compounds for which there was no clear down regulation even at 50 μg/ml)
5 | CCOC(=O)c1cc([N+](=O)[O-])cc2c1-c1ccc([N+](=O)[O-])cc1C2=C(C#N)C#N [compound 1039] | — (compounds for which there was no clear down regulation even at 50 μg/ml)
6 | O=C1c2ccccc2C(=O)c2c1ccc1c(=O)n(-c3ccccc3)[nH]c21 [compound 1042] | 11 (compounds for which there was clear down regulation only at 50 μg/ml)
7 | O=C(c1cccc2c1-c1ccccc1/C2=N\O)N1CCCCC1 [compound 1050] | 12 (compounds for which there was clear down regulation at 5 μg/ml and 50 μg/ml)
8 | NC(=O)c1cccc2c1-c1ccccc1C2 [compound 1132] | 11 (compounds for which there was clear down regulation only at 50 μg/ml)
9 | NC(=O)c1cc(N)c2c(c1N)C(=O)c1ccccc1C2=O [compound 1158] | — (compounds for which there was no clear down regulation even at 50 μg/ml)
10 | CC(=O)Oc1cc(C)c(C2(c3cc(C(C)C)c(OC(C)=O)cc3C)OC(=O)c3ccccc32)cc1C(C)C [compound 1161] | 12 (compounds for which there was clear down regulation at 5 μg/ml and 50 μg/ml)
11 | COC(=O)c1cccc(C(O)(c2ccccc2)c2ccccc2)c1S(=O)(=O)C(C)(C)C [compound 1187] | 12 (compounds for which there was clear down regulation at 5 μg/ml and 50 μg/ml)
12 | CCOCCOC(=O)c1cc([N+](=O)[O-])cc2c1-c1c(cc([N+](=O)[O-])cc1[N+](=O)[O-])C2=C(C#N)C#N [compound 1241] | 11 (compounds for which there was clear down regulation only at 50 μg/ml)
13 | CC1CCN(C(=O)c2cccc3c2-c2ccccc2C3=O)CC1 [compound 1243] | — (compounds for which there was no clear down regulation even at 50 μg/ml)
14 | Cc1cccc(C2(c3cccc(C)c3)OC(=O)c3ccccc32)c1 [compound 1308] | 12 (compounds for which there was clear down regulation at 5 μg/ml and 50 μg/ml)
15 | COCCCNC(=O)c1ccc2c(c1N)C(=O)c1ccccc1C2=O [compound 1337] | 11 (compounds for which there was clear down regulation only at 50 μg/ml)
16 | O=C1Nc2ccccc2Oc2ccc([N+](=O)[O-])cc21 [compound 1352] | — (compounds for which there was no clear down regulation even at 50 μg/ml)
17 | Flunarizinehydrochloride [compound 312] | 11 (compounds for which there was clear down regulation only at 50 μg/ml)
18 | Maprotilinehydrochloride [compound 346] | 11 (compounds for which there was clear down regulation only at 50 μg/ml)
19 | Metixene hydrochloride [compound 491] | 12 (compounds for which there was clear down regulation at 5 μg/ml and 50 μg/ml)
20 | Prochlorperazinedimaleate [compound 399] | 12 (compounds for which there was clear down regulation at 5 μg/ml and 50 μg/ml)
21 | Trifluoperazinedihydrochloride [compound 313] | — (compounds for which there was no clear down regulation even at 50 μg/ml)
